Reference: ChEMBL document CHEMBL1156897, “New potential antitumor compounds from the plant Aristolochia manshuriensis as inhibitors of the CDK2 enzyme” (Bioorg Med Chem Lett, 2010)

How the values were obtained:
[1] = molecular target: Cyclin-dependent kinase 2 (Homo sapiens, UniProt P24941); experiment: Inhibition of CDK2
[2] = molecular target: Cyclin-dependent kinase 1 (Homo sapiens, UniProt P06493); experiment: Inhibition of CDC2
[3] = molecular target: Cyclin-dependent kinase 4 (Homo sapiens, UniProt P11802); experiment: Inhibition of CDK4
Chain of Cyclin-dependent kinase 4 (P11802 whole entry): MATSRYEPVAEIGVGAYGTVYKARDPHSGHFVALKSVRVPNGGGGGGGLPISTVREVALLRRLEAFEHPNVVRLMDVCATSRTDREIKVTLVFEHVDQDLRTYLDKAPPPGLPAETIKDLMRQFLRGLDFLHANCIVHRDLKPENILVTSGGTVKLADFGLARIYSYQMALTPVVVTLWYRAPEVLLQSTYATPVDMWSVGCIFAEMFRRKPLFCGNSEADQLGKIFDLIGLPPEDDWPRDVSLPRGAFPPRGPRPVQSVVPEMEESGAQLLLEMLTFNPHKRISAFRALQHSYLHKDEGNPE

[4] = Inhibition of MAPK

Chain of Cyclin-dependent kinase 1 (P06493 whole entry): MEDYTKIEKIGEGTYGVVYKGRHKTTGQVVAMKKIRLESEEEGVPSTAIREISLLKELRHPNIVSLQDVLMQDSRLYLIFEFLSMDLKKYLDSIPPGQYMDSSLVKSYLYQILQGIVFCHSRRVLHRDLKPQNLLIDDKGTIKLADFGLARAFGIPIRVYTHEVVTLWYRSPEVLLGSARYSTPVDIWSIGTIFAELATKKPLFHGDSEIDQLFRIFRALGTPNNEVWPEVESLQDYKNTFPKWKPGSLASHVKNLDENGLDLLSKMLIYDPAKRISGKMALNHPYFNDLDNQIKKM

Structure (SMILES)	IC50 [1]	IC50 [2]	IC50 [3]	IC50 [4]
O=C1Nc2cc3c(O[C@@H]4O[C@H](CO)[C@@H](O)[C@H](O)[C@H]4O)cccc3c3c4c(cc1c23)OCO4	> 10000 nM	–	–	–
COc1c(O)cc2c3c(cc4ccc(O)cc4c13)NC2=O [ARISTOLACTAM AIIIA]	140 nM	214 nM	1420 nM	35300 nM
